Tests used:
human type X sPLA2 [1] = target: T1, human type X sPLA2 (Homo sapiens, UniProt O15496); experiment: Type X sPLA2-induced PGE2 production in human colon carcinoma HT-29 cells; format: cell-based; conditions: compound 10 μM; TNF-α-treated HT-29 cells; 100 nM human type X sPLA2, 3 h; percentage of PGE2 produced by type X sPLA2 (no treatment group = 100)
T1 construct: made in house; unpurified culture supernatant
T1 sequence (O15496 43-165): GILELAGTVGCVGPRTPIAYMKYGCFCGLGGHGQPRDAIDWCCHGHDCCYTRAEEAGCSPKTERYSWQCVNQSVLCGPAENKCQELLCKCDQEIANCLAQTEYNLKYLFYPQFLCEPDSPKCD
Experimental: Examination 16: Effects of sPLA2 Inhibitors on Type X sPLA2-Induced PGE2 Production in Human Colon Carcinoma Cell Lines, HT-29 Cells.
HT-29 cells were seeded into 24-well plates at a density of 2.5×10^5 cells/well. After incubation for 24 h, the cells were washed three times with PBS and incubated with 30 ng/mL of recombinant human tumor necrosis factor-α (R&D Systems, Inc.) in DMEM medium supplemented with 10% fetal bovine serum for 18 h at 37° C. After washing with PBS, the cells were preincubated with or without test compounds (at a final concentration of 10 μM; dissolved in DMSO) in Hanks' buffered saline containing 0.1% BSA for 10 min at 37° C., and then stimulated with 100 nM purified human type X sPLA2 enzyme in a final volume of 0.5 mL. After incubation for 3 h at 37° C, the culture supernatant was collected following the centrifugation for the removal of floating cells, and its PGE2 content was quantified with an enzyme-immunoassay kit (Cayman Chemicals Co.). From each data, the value in the absence of type X sPLA2 was subtracted. The amount of PGE2 in the presence of each test compound was expressed as the percentage of the PGE2 content produced by the addition of type X sPLA2 enzyme.

[2] = target: T2, human type II enzyme (sPLA2) (Homo sapiens, UniProt P14555); experiment: Inhibition test of human secretory phospholipase A2, chromogenic assay, type II enzyme; format: biochemical; conditions: human sPLA2 type II, chromogenic assay, 30 min; read-out: IC50 type II
T2 sequence (P14555 21-144): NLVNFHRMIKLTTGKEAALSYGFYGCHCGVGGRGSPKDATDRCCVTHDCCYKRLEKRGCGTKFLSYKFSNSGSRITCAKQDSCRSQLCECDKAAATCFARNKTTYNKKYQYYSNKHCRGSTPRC

human type X sPLA2 [3] = target: T1, human type X sPLA2; experiment: Type X sPLA2-induced fatty acid release from isolated human lipoproteins (LDL); format: biochemical; conditions: compound 10 μM; human LDL 0.5 mg/mL; 10 nmol/L human type X sPLA2, 4 hr at 37° C.; read-out: % of Inhibition (10 μM)
Experimental: Examination 17: Effects of sPLA2 Inhibitors on Type X sPLA2-Induced Fatty Acid Release From Isolated Human Lipoproteins.
LDL was isolated from human plasma by sequential ultracentrifugation method (Havel et al. J. Clin. Invest. 34,1345–1353 (1955)). LDL (0.5 mg/mL) was incubated with 10 nmol/L of human type X sPLA2 in the assay mixture containing 12.5 mmol/L Tris-HCl buffer (pH 8.0), 125 mg/L bovine serum albumin and 1 mmol/L calcium chloride for 4 hr at 37° C. Fatty acids released from lipoprotein were extracted by Dole's method (Dole et al. J. Biol. Chem. 235, 2595–2599 (1960)), labeled with 9-anthryldiazomethane according to a known method (Hanasaki et al., J. Biol. Chem. 274, 34203–34211 (1999)) and measured by detecting the fluorescence of labeled fatty acids using reverse-phase high performance chromatography (LiChroCART 125-4 Superspher 100 RP-18 column (Merck). For the inhibition assay of drugs, sPLA2 inhibitors (final concentration of 10 μM) were added at almost the same time as the addition of sPLA2 into the reaction solution. The results are presented in Table 10.

[4] = target: human type I enzyme (sPLA2) (Homo sapiens, UniProt P04054); experiment: Inhibition test of human secretory phospholipase A2, chromogenic assay, type I enzyme; format: biochemical; conditions: recombinant human sPLA2 type I, chromogenic assay, 30 min; read-out: IC50 type I
Sequence of human type I enzyme (sPLA2) (P04054 23-148): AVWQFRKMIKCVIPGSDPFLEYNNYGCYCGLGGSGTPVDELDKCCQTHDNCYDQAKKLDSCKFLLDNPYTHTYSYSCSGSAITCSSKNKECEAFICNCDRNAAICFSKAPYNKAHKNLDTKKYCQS

human type V sPLA2 = target: T3, human type V sPLA2 (Homo sapiens, UniProt P39877); experiment: Inhibition test of human secretory phospholipase A2, chromogenic assay, type V enzyme; format: biochemical; conditions: human sPLA2 type V (CHO supernatant), chromogenic assay, 45 min; read-out: IC50 type V
T3 construct: made in house; unpurified culture supernatant
T3 sequence (P39877 21-138): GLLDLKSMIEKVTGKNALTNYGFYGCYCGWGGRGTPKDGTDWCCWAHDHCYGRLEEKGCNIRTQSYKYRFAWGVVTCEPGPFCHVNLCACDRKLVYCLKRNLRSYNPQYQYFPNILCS

human type X sPLA2 [5] = target: T1, human type X sPLA2; experiment: Human type X sPLA2-induced oleic acid release in human colon carcinoma HT-29 cells; format: cell-based; conditions: compound 10 μM, 100 nM human type X sPLA2, 30 min, percentage of the increase by type X sPLA2 (no treatment group = 100)
Experimental: Examination 15: Effects of sPLA2 Inhibitors on Human Type X sPLA2-Induced Oleic Acid Release in Human Colon Calcinoma Cell Lines, HT-29 Cells.
Human colon calcinoma cell lines, HT-29 cells (obtained from ATCC) were cultured in DMEM supplemented with 10% fetal calf serum. The cells were washed by phosphate-buffered saline (PBS), detached from culture plates by treatment with trypsin/EDTA solution and further washed by PBS. The resulting cells were resuspended in Hanks' buffered saline containing 0.1% bovine serum albumin (BSA) at a density of 12.5×10^6 cells/mL. Aliquots of the cell suspension (0.4 ml) were transferred into polypropylene tubes and test compounds dissolved in DMSO solution (final concentration; 10 μM) were added. After preincubation for 10 min at 37° C., 100 nM purified human type X sPLA2 enzyme (Hanasaki et al J. Biol. Chem. (1999) 274, 34203–34211) was added (final volume of 0.5 mL). After incubation for 30 min at 37° C., the reaction was stopped by the addition of 2 ml Dole's reagent (heptane:2-propanol:1M H2SO4=10:40:1, v/v/v).

human type X sPLA2 [6] = target: T1, human type X sPLA2; experiment: Inhibition test of human secretory phospholipase A2, chromogenic assay, type X enzyme; format: biochemical

Molecule CC(C)Cc1c(C(=O)C(N)=O)c2c(OCC(=O)O)cccc2n1Cc1ccccc1 [Compound I-10] has a PGE2 production (human type X sPLA2 [1]) of −12.7 ± 7.9 %, an IC50 [2] greater than 1000 nM and an inhibition at 10 µM (human type X sPLA2 [3]) of 91.3%. It also gave an IC50 [4] greater than 700 nM, an IC50 (human type V sPLA2) greater than 1000 nM and an Oleic acid release (human type X sPLA2 [5]) of −0.2 ± 5.7 %. The IC50 (human type X sPLA2 [6]) was 13 nM.

From patent publication US7026318B2 (Shionogi & Co., Ltd., priority 2000, dated 2006)
